{
  "source": "patent US20110098288A1",
  "about": "“SULFONAMIDES AS ZAP-70 INHIBITORS” (priority 2008, published 2011)",
  "key": {"ZAP-70": {"target": "T1, ZAP-70 (Homo sapiens, UniProt P43403)", "T1 construct": "endogenous in cells; host or cells: cell lysate", "T1 sequence (P43403 1-619)": "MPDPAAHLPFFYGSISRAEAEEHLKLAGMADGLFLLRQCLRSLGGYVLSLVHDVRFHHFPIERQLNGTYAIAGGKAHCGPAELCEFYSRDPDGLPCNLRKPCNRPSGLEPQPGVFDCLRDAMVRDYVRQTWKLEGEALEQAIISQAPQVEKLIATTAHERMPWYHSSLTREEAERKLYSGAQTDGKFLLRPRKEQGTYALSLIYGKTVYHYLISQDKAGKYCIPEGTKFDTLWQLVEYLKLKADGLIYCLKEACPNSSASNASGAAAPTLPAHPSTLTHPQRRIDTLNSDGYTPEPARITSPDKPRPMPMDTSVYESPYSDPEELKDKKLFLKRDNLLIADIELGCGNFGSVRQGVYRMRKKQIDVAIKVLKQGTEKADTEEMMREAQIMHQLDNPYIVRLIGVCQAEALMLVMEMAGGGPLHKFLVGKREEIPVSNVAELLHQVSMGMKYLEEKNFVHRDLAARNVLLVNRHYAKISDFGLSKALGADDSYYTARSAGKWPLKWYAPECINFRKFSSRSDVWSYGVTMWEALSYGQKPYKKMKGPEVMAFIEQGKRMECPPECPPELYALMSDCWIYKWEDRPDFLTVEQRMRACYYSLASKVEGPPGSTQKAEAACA", "assay": "ZAP-70 kinobeads assay", "type": "binding", "conditions": "competition with immobilized aminopyrido-pyrimidine ligand 24 in cell lysate; ZAP-70 detected by dot blot", "method_in_brief": "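Cell lysate aliquots incubated with test compounds at various concentrations plus affinity beads carrying immobilized aminopyrido-pyrimidine ligand 24. Bead-captured proteins eluted; ZAP-70 quantified by specific antibody dot blot with infrared detection.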"}, "Jurkat cells": {"tested_on": "Jurkat cells", "assay": "Calcium release assay (Fluo-4 flow cytometry after anti-CD3 stimulation)", "type": "cell-based", "conditions": "Homo sapiens, Jurkat cell line J77, anti-CD3 activation, read-out: IC50 (Calcium ion release in cells)", "experimental": "Compounds of the present invention were tested in a Calcium release assay as described below.\nThe development of fluorescent probes makes it possible to measure the concentration of intracellular free Calcium ions in single living cells. Cells are first loaded with a cell-permeable Ca^2+-sensitive dye, then the test compound is added. Finally, cells are activated through the T cell receptor with an anti-CD3 antibody shortly before data acquisition on the flow cytometer. The release of Ca^2+ is measured as a function of time after cell stimulation. This protocol describes the flow cytometry method using the Fluo-3 and Fluo-4 dyes (Minta et al., 1989, J. Biol. Chem. 264(14):8171-8178) to measure the intracellular Ca^2+ concentration in Jurkat cells (see also June et al., 1997, Measurement of intracellular calcium ions by flow cytometry. In: Current Protocols in Cytometry (1997) Unit 9.8.1-9.8.19, John Wiley & Sons, Inc.).\nIn general, cells should be handled in the shortest time possible to assure their stability. Therefore the preparation of all materials in advance is highly recommended as well as using any incubation or centrifugation time to prepare the next steps (e.g. preparing compound dilution or starting the flow cytometer).\n1) Prepare a work plan indicating the number of samples to be analyzed including controls. 2) Cell harvest: Centrifuge 50 to 100 ml of a Jurkat cell culture for 5 minutes at 1100 rpm. Discard the supernatant, pool the resuspended cell pellets in a single 50 ml Falcon tube, and fill up to 50 ml with PBS—CaCl2 (without FCS). Centrifuge again sample again. 3) Resuspend cell pellet with PBS—CaCl2 (without FCS) to achieve a concentration not lower than 10×10^6 cells/ml. Prepare an adequate dilution to evaluate the cell concentration and count the cells. 4) Separate the volume of cells needed to be loaded (for example […] for 20 samples) in a 50 ml Falcon tube. Fill up with PBS—CaCl2 to 900 μl for 107 cells. 5) Prepare in the dark a 1:1 mix of FLUO-4 (1 mM)+Pluronic F-127 (20%). 5 μl of Fluo-4 are needed per 107 cells. 6) Prepare a 1/10 dilution of this mix with PBS—CaCl2 (in the dark; for example 5 μl Fluo-4+5 μl F-127 completed to 100 μl). 7) Add the dye solution to the cells. […] 8) Incubate the sample for 30 minutes in a cell incubator (37° C., 5% CO2). Mix from time to time. 9) During this time prepare the adequate test compound dilution in PBS—CaCl2 (with 10% FCS). The solution should be 10 times more concentrated than the desired final concentration. Vortex each dilution. Prepare also the antibody dilutions: anti-CD3 (1/200) and GAM (1/25). 10) Label FACS tubes and distribute in the corresponding tube 30 μl of the compound dilution or only buffer for the control tubes. 11) After 30 minutes of incubation wash the cells twice in PBS—CaCl2 (with 10% FCS). During the washing steps make sure that the flow cytometer is already “ON” in order to warm the laser. 12) Resuspend the cell pellet in PBS—CaCl2 (with 10% FCS) at a concentration of 1.5×10^6 cells/ml. 13) Distribute 300 μl of cell suspension into the FACS tubes and mix gently. The compound incubation is starting. Keep samples at room temperature in the dark. 14) Open the settings of the cytometer. It is advised to have a template ready which is used for all measurements. Settings of the machine should also be the same from one experiment to the other which permits to evaluate the reproducibility of the cell preparation. 15) In Setup modus control your cell preparation on the cytometer. Cells should fit in the pre-defined gates. 16) During the compound incubation time, check also that cells are responding to the anti-CD3 activation as expected. Set a timer at 8 sec. Add 6 μl of anti-CD3 dilution (0.2 μg/ml final) and mix gently. Add 1 μl of GAM dilution (0.75 μg/ml final) and mix gently. Incubate the samples in water bath at 37° C. while starting timer. After 8 seconds of incubation, acquire data at medium speed for 200 seconds. […]"}},
  "data": [
    {"compound": "CNCCS(=O)(=O)Nc1ccccc1Nc1nc(Nc2cc(OC)c(OC)c(OC)c2)ncc1F", "note": "[Example 62, N-(2-(5-fluoro-2-(3,4,5-trimethoxyphenylamino)pyrimidin-4-ylamino)phenyl)-2-(methylamino)ethanesulfonamide]", "values": [
      {"measurement": "IC50", "setting": "ZAP-70", "result": "1000 to 10000", "unit": "nM"},
      {"measurement": "IC50", "setting": "Jurkat cells", "result": "100 to 1000", "unit": "nM"}
    ]},
    {"compound": "CNCCS(=O)(=O)Nc1cccc(Nc2nc(Nc3cc(OC)c(OC)c(OC)c3)ncc2F)c1", "note": "[Example 64, N-(3-(5-fluoro-2-(3,4,5-trimethoxyphenylamino)pyrimidin-4-ylamino)phenyl)-2-(methylamino)ethanesulfonamide]", "values": [
      {"measurement": "IC50", "setting": "ZAP-70", "result": "100 to 1000", "unit": "nM"},
      {"measurement": "IC50", "setting": "Jurkat cells", "result": "100 to 1000", "unit": "nM"}
    ]},
    {"compound": "CCOc1ccc(Nc2nc(Nc3cc(OC)c(OC)c(OC)c3)ncc2F)c(NS(C)(=O)=O)c1C", "note": "[Example 168, N-(3-ethoxy-6-(5-fluoro-2-(3,4,5-trimethoxyphenylamino)pyrimidin-4-ylamino)-2-methylphenyl)methanesulfonamide]", "values": [
      {"measurement": "IC50", "setting": "ZAP-70", "result": "100 to 1000", "unit": "nM"},
      {"measurement": "IC50", "setting": "Jurkat cells", "result": "100 to 1000", "unit": "nM"}
    ]},
    {"compound": "CCOc1ccc(Nc2nc(Nc3cc(OC)c(OC)c(OC)c3)ncc2F)c(NS(C)(=O)=O)c1", "note": "[Example 175, N-(5-ethoxy-2-(5-fluoro-2-(3,4,5-trimethoxyphenylamino)pyrimidin-4-ylamino)phenyl)methanesulfonamide]", "values": [
      {"measurement": "IC50", "setting": "ZAP-70", "result": "< 100", "unit": "nM"},
      {"measurement": "IC50", "setting": "Jurkat cells", "result": "< 100", "unit": "nM"}
    ]},
    {"compound": "COc1cc(Nc2ncc(F)c(Nc3ccccc3NS(=O)(=O)c3cccs3)n2)cc(OC)c1OC", "note": "[Example 50, N-(2-(5-fluoro-2-(3,4,5-trimethoxyphenylamino)pyrimidin-4-ylamino)phenyl)thiopehene-2-sulfonamide]", "values": [
      {"measurement": "IC50", "setting": "ZAP-70", "result": "1000 to 10000", "unit": "nM"},
      {"measurement": "IC50", "setting": "Jurkat cells", "result": "100 to 1000", "unit": "nM"}
    ]},
    {"compound": "CCN(CC)CCOc1cccc(Nc2ncc(Cl)c(Nc3ccccc3NS(C)(=O)=O)n2)c1", "note": "[Example 126, N-(2-(5-chloro-2-(3-(2-(diethylamino)ethoxy)phenylamino)pyrimidin-4-ylamino)phenyl)methanesulfonamide]", "values": [
      {"measurement": "IC50", "setting": "ZAP-70", "result": "< 100", "unit": "nM"},
      {"measurement": "IC50", "setting": "Jurkat cells", "result": "< 100", "unit": "nM"}
    ]},
    {"compound": "COc1ccc(Nc2ncc(F)c(Nc3ccccc3NS(C)(=O)=O)n2)cc1OC", "note": "[Example 36, N-(2-(2-(3,4-dimethoxyphenylamino)-5-fluoropyrimidin-4-ylamino)phenyl)methanesulfonamide]", "values": [
      {"measurement": "IC50", "setting": "ZAP-70", "result": "100 to 1000", "unit": "nM"},
      {"measurement": "IC50", "setting": "Jurkat cells", "result": "100 to 1000", "unit": "nM"}
    ]},
    {"compound": "COc1ccc(Nc2nc(Nc3cc(OC)c(OC)c(OC)c3)ncc2Br)c(NS(C)(=O)=O)c1", "note": "[Example 178, N-(2-(5-bromo-2-(3,4,5-trimethoxyphenylamino)pyrimidin-4-ylamino)-5-methoxyphenyl)methanesulfonamide]", "values": [
      {"measurement": "IC50", "setting": "ZAP-70", "result": "< 100", "unit": "nM"},
      {"measurement": "IC50", "setting": "Jurkat cells", "result": "100 to 1000", "unit": "nM"}
    ]},
    {"compound": "COc1cc(Nc2ncc(C)c(Nc3ccccc3NS(C)(=O)=O)n2)cc(OC)c1OC", "note": "[Example 66, N-(2-(5-methyl-2-(3,4,5-trimethoxyphenylamino)pyrimidin-4-ylamino)phenyl)methanesulfonamide]", "values": [
      {"measurement": "IC50", "setting": "ZAP-70", "result": "100 to 1000", "unit": "nM"},
      {"measurement": "IC50", "setting": "Jurkat cells", "result": "100 to 1000", "unit": "nM"}
    ]},
    {"compound": "COc1ccc(Nc2ncc(Br)c(Nc3ccccc3NS(C)(=O)=O)n2)cc1OC", "note": "[Example 107, N-(2-(5-bromo-2-(3,4-dimethoxyphenylamino)pyrimidin-4-ylamino)phenyl)methanesulfonamide]", "values": [
      {"measurement": "IC50", "setting": "ZAP-70", "result": "< 100", "unit": "nM"},
      {"measurement": "IC50", "setting": "Jurkat cells", "result": "< 100", "unit": "nM"}
    ]},
    {"compound": "Cc1cccc(Nc2nc(Nc3cccc(OCCN4CCCCC4)c3)ncc2Cl)c1NS(C)(=O)=O", "note": "[Example 128, N-(2-(5-chloro-2-(3-(2-(piperidin-1-yl)ethoxy)phenylamino)pyrimidin-4-ylamino)-6-methylphenyl)methanesulfonamide]", "values": [
      {"measurement": "IC50", "setting": "ZAP-70", "result": "< 100", "unit": "nM"},
      {"measurement": "IC50", "setting": "Jurkat cells", "result": "< 100", "unit": "nM"}
    ]},
    {"compound": "CS(=O)(=O)Nc1ccccc1Nc1nc(Nc2cccc(OCCO)c2)ncc1Cl", "note": "[Example 123, N-(2-(5-chloro-2-(3-(2-hydroxyethoxy)phenylamino)pyrimidin-4-ylamino)phenyl)methanesulfonamide]", "values": [
      {"measurement": "IC50", "setting": "ZAP-70", "result": "< 100", "unit": "nM"},
      {"measurement": "IC50", "setting": "Jurkat cells", "result": "< 100", "unit": "nM"}
    ]},
    {"compound": "CCNC(=O)COc1cccc(Nc2ncc(Cl)c(Nc3ccccc3NS(C)(=O)=O)n2)c1", "note": "[Example 151, 2-(3-(5-chloro-4-(2-(methylsulfonamido)phenylamino)pyrimidin-2-ylamino)phenoxy)-N-ethylacetamide 2,2,2-trifluoroacetate]", "values": [
      {"measurement": "IC50", "setting": "ZAP-70", "result": "< 100", "unit": "nM"},
      {"measurement": "IC50", "setting": "Jurkat cells", "result": "< 100", "unit": "nM"}
    ]}
  ]
}
